Laboratory results taken from PubChem BioAssay (NCI).
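Briefly, cells in 96-well plates were exposed to five compound concentrations for 48 h, and endpoints were estimated by linear interpolation. GI50: concentration for 50% inhibition of growth. TGI: concentration producing complete growth inhibition.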

Tests used:
Test in all cases: NCI tumour cell line growth inhibition, 48 h
[1] = test system: U251 CNS
[2] = test system: BT-549 breast
[3] = test system: NCI-H522 lung
[4] = test system: RPMI-8226 leukemia
[5] = test system: T-47D breast
[6] = test system: A498 renal
[7] = test system: SNB-75 CNS
[8] = test system: A549 NSCLC
[9] = test system: OVCAR-4 ovarian
[10] = test system: PC-3 prostate
[11] = test system: LOX IMVI melanoma
[12] = test system: IGROV1 ovarian
[13] = test system: 786-0 renal
[14] = test system: ACHN renal
[15] = test system: NCI-H460 lung
[16] = test system: SK-MEL-28 melanoma
[17] = test system: UACC-62 melanoma
[18] = test system: NCI-H23 lung
[19] = test system: NCI/ADR-RES ovarian
[20] = test system: SK-MEL-5 melanoma
[21] = test system: HT29 colon
[22] = test system: MALME-3M melanoma
[23] = test system: UACC-257 melanoma
[24] = test system: M14 melanoma
[25] = test system: HS 578T breast
[26] = test system: MDA-MB-435
[27] = test system: EKVX NSCLC
[28] = test system: UO-31 renal
[29] = test system: TK-10 renal
[30] = test system: RXF 393 renal
[31] = test system: K-562 leukemia
[32] = test system: OVCAR-8 ovarian
[33] = test system: KM12 colon
[34] = test system: HCC-2998 colon
[35] = test system: DU-145 prostate
[36] = test system: HCT-116 colon
[37] = test system: SW-620 colon
[38] = test system: SN12C renal
[39] = test system: MOLT-4 leukemia
[40] = test system: HOP-92 NSCLC
[41] = test system: SNB-19 CNS
[42] = test system: CAKI-1 renal
[43] = test system: OVCAR-3 ovarian
[44] = test system: MDA-MB-231 breast
[45] = test system: OVCAR-5 ovarian
[46] = test system: MDA-MB-468 breast
[47] = test system: COLO 205 colon
[48] = test system: SF-268 CNS
[49] = test system: HL-60(TB) leukemia
[50] = test system: HOP-62 NSCLC
[51] = test system: SF-539 CNS
[52] = test system: SK-OV-3 ovarian
[53] = test system: HCT-15 colon
[54] = test system: MCF7 breast
[55] = test system: NCI-H226 lung
[56] = test system: CCRF-CEM leukemia
[57] = test system: SR leukemia
[58] = test system: SF-295 CNS
[59] = test system: SK-MEL-2 melanoma

`O=C(NNC(=S)NC(=O)c1ccccc1)c1ccc(OCc2nc3ccc(Cl)cc3[nH]2)cc1` showed a GI50 [1] of 1.71 µM, a TGI [1] of 3.46 µM and a GI50 [2] of 1.54 µM. It also gave a TGI [2] of 3.14 µM, a GI50 [3] of 3.3 µM and a TGI [3] of 13.4 µM. The GI50 [4] was 2.83 µM, the TGI [4] was 21.6 µM and the GI50 [5] was 3.12 µM. The TGI [5] was 18.6 µM, the GI50 [6] was 1.6 µM and the TGI [6] was 4.39 µM. The GI50 [7] was 1.48 µM, the TGI [7] was 4.78 µM and the GI50 [8] was 1.99 µM. It also gave a TGI [8] of 4.49 µM, a GI50 [9] of 2.34 µM and a TGI [9] of 14.8 µM. It also gave a GI50 [10] of 1.79 µM, a TGI [10] of 4.96 µM and a GI50 [11] of 1.26 µM. It also gave a TGI [11] of 2.64 µM, a GI50 [12] of 2.18 µM and a TGI [12] of 5.33 µM. For the same compound, the GI50 [13] was 2.05 µM, the TGI [13] was 6.12 µM and the GI50 [14] was 2.04 µM. The TGI [14] was 5.82 µM, the GI50 [15] was 1.26 µM and the TGI [15] was 3.6 µM. For the same compound, the GI50 [16] was 1.65 µM, the TGI [16] was 3.23 µM and the GI50 [17] was 1.67 µM. The TGI [17] was 3.11 µM, the GI50 [18] was 1.78 µM and the TGI [18] was 3.7 µM. The GI50 [19] was 0.396 µM, the TGI [19] was 2.55 µM and the GI50 [20] was 1.78 µM. The TGI [20] was 3.93 µM, the GI50 [21] was 3.45 µM and the TGI [21] was 13.7 µM. For the same compound, the GI50 [22] was 1.53 µM, the TGI [22] was 3.08 µM and the GI50 [23] was 2.85 µM. It also gave a TGI [23] of 10.5 µM, a GI50 [24] of 1.55 µM and a TGI [24] of 3.79 µM. It also gave a GI50 [25] of 2.17 µM, a TGI [25] of 7.3 µM and a GI50 [26] of 1.81 µM. The TGI [26] was 4.37 µM, the GI50 [27] was 2.12 µM and the TGI [27] was 5.75 µM. It also gave a GI50 [28] of 1.39 µM, a TGI [28] of 4.11 µM and a GI50 [29] of 4.49 µM. The TGI [29] was 21.2 µM, the GI50 [30] was 2.32 µM and the TGI [30] was 6.67 µM. It also gave a GI50 [31] of 2.79 µM, a TGI [31] of over 100 µM and a GI50 [32] of 2.1 µM. It also gave a TGI [32] of 5.07 µM, a GI50 [33] of 1.89 µM and a TGI [33] of 4.11 µM. The GI50 [34] was 1.68 µM, the TGI [34] was 3.35 µM and the GI50 [35] was 3.02 µM. It also gave a TGI [35] of 15.3 µM, a GI50 [36] of 1.52 µM and a TGI [36] of 3.51 µM. For the same compound, the GI50 [37] was 1.99 µM, the TGI [37] was 4.55 µM and the GI50 [38] was 1.57 µM. For the same compound, the TGI [38] was 3.16 µM, the GI50 [39] was 2.22 µM and the TGI [39] was 10.2 µM. It also gave a GI50 [40] of 2.18 µM, a TGI [40] of 6.26 µM and a GI50 [41] of 2.1 µM. The TGI [41] was 6.68 µM, the GI50 [42] was 2.48 µM and the TGI [42] was 9.45 µM. For the same compound, the GI50 [43] was 1.85 µM, the TGI [43] was 4.55 µM and the GI50 [44] was 1.71 µM. For the same compound, the TGI [44] was 3.37 µM, the GI50 [45] was 1.8 µM and the TGI [45] was 3.93 µM. It also gave a GI50 [46] of 2.52 µM, a TGI [46] of 9.45 µM and a GI50 [47] of 2.66 µM. The TGI [47] was 9.34 µM, the GI50 [48] was 2.42 µM and the TGI [48] was 12 µM. For the same compound, the GI50 [49] was 2.22 µM, the TGI [49] was 7.24 µM and the GI50 [50] was 1.76 µM. The TGI [50] was 3.56 µM, the GI50 [51] was 1.76 µM and the TGI [51] was 3.23 µM. For the same compound, the GI50 [52] was 2.05 µM, the TGI [52] was 4.89 µM and the GI50 [53] was 0.567 µM. For the same compound, the TGI [53] was 2.13 µM, the GI50 [54] was 2.91 µM and the TGI [54] was 17.7 µM. It also gave a GI50 [55] of 2.02 µM, a TGI [55] of 7.82 µM and a GI50 [56] of 1.44 µM. The TGI [56] was 10.5 µM, the GI50 [57] was 2.52 µM and the TGI [57] was 11.7 µM. It also gave a GI50 [58] of 1.27 µM, a TGI [58] of 2.98 µM and a GI50 [59] of 2.08 µM. For the same compound, the TGI [59] was 4.95 µM.
